ChEMBL document CHEMBL3769312, “2-Sulfonamidopyridine C-region analogs of 2-(3-fluoro-4-methylsulfonamidophenyl)propanamides as potent TRPV1 antagonists” (Bioorg Med Chem, 2016)

Experiments:
[1] = target: T1, Transient receptor potential cation channel subfamily V member 1 (Homo sapiens, UniProt Q8NER1); test: Antagonist activity at human TRPV1 expressed in CHO cells assessed as inhibition of capsaicin-induced (45)Ca2+ uptake after 5 mins by liquid scintillation counting analysis; assay type: cell-based
T1 sequence (Q8NER1 whole entry): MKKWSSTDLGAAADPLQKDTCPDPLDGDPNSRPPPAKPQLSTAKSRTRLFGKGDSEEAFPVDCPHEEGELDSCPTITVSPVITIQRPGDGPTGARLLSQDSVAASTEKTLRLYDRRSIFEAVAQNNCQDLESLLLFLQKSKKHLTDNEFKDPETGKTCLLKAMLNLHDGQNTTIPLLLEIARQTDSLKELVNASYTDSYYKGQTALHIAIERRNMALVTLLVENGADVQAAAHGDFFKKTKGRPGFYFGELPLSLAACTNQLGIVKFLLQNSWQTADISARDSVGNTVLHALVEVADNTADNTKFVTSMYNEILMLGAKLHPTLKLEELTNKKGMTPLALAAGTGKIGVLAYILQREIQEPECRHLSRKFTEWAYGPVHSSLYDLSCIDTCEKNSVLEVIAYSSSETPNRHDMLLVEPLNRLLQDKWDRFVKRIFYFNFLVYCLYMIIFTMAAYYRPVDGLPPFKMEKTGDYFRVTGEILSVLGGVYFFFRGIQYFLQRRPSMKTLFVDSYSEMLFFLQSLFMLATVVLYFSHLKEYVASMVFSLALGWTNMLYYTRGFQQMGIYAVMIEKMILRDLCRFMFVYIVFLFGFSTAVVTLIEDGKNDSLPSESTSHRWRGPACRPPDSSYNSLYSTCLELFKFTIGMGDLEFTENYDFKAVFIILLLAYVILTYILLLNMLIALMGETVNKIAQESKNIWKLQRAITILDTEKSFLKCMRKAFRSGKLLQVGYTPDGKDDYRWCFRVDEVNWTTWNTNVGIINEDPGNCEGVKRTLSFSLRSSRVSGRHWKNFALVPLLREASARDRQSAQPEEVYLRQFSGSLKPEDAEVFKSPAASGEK

[2] = target: T1, Transient receptor potential cation channel subfamily V member 1; test: Displacement of [3H]RTX from human TRPV1 expressed in CHO cells after 60 mins by scintillation counting analysis; assay type: cell-based
[3] = target: T1, Transient receptor potential cation channel subfamily V member 1; test: Agonist activity at human TRPV1 expressed in CHO cells assessed as (45)Ca2+ uptake after 5 mins by liquid scintillation counting analysis; assay type: cell-based
Mus musculus = test: Analgesic activity in ip dosed formalin-induced mouse pain model after 20 to 30 mins; assay type: functional

Ki ([1]; read-out: Ki) [nM] | Ki ([2]; read-out: Ki) [nM] | EC50 [3] | Ki ([1]; cho) | Ki ([2]; cho) | Structure (SMILES) | Activity (Mus musculus) | ED50 (Mus musculus) [mg/kg]
5.77 | 1.29 | Not Active | – | – | CC(C(=O)NCc1ccc(C(F)(F)F)nc1N(Cc1ccc(Cl)cc1)S(=O)(=O)c1ccccc1)c1ccc(NS(C)(=O)=O)c(F)c1 (configuration not stated) | – | –
2.14 | 7.5 | Not Active | – | – | COc1ccc(CN(c2nc(C(F)(F)F)ccc2CNC(=O)C(C)c2ccc(NS(C)(=O)=O)c(F)c2)S(=O)(=O)c2ccccc2)cc1 (configuration not stated) | – | –
25 | 101 | Not Active | – | – | CC(C(=O)NCc1ccc(C(F)(F)F)nc1N(Cc1ccccc1)S(C)(=O)=O)c1ccc(NS(C)(=O)=O)c(F)c1 (configuration not stated) | – | –
7.37 | 2.32 | Not Active | – | – | CC(C(=O)NCc1ccc(C(F)(F)F)nc1N(Cc1ccc(F)cc1)S(=O)(=O)c1ccccc1)c1ccc(NS(C)(=O)=O)c(F)c1 (configuration not stated) | – | –
2.99 | 0.71 | Not Active | – | – | CC(C(=O)NCc1ccc(C(F)(F)F)nc1N(Cc1ccc(F)cc1)S(=O)(=O)c1ccc(F)cc1)c1ccc(NS(C)(=O)=O)c(F)c1 (configuration not stated) | – | –
3.87 | 1.56 | Not Active | – | – | CC(C(=O)NCc1ccc(C(F)(F)F)nc1N(Cc1ccccc1)S(=O)(=O)c1ccc(F)cc1)c1ccc(NS(C)(=O)=O)c(F)c1 (configuration not stated) | – | –
1.81 | 0.54 | Not Active | – | – | C[C@H](C(=O)NCc1ccc(C(F)(F)F)nc1N(Cc1ccccc1)S(=O)(=O)c1ccccc1)c1ccc(NS(C)(=O)=O)c(F)c1 | – | –
5.54 | 1.85 | Not Active | – | – | Cc1ccc(CN(c2nc(C(F)(F)F)ccc2CNC(=O)C(C)c2ccc(NS(C)(=O)=O)c(F)c2)S(=O)(=O)c2ccccc2)cc1 (configuration not stated) | – | –
6 | 0.9 | Not Active | – | – | CC(C(=O)NCc1ccc(C(F)(F)F)nc1N(Cc1ccc(Cl)cc1)S(=O)(=O)c1ccc(F)cc1)c1ccc(NS(C)(=O)=O)c(F)c1 (configuration not stated) | – | –
7.08 | 3.28 | Not Active | – | – | Cc1ccc(CN(c2nc(C(F)(F)F)ccc2CNC(=O)C(C)c2ccc(NS(C)(=O)=O)c(F)c2)S(=O)(=O)c2ccc(F)cc2)cc1 (configuration not stated) | – | –
11.8 | 7.3 | Not Active | – | – | CC(C(=O)NCc1ccc(C(F)(F)F)nc1N(c1ccc(F)cc1)S(=O)(=O)c1ccccc1)c1ccc(NS(C)(=O)=O)c(F)c1 (configuration not stated) | – | –
8.5 | 0.76 | Not Active | – | – | CC(C(=O)NCc1ccc(C(F)(F)F)nc1N(Cc1ccccc1)S(=O)(=O)c1ccc(Cl)cc1)c1ccc(NS(C)(=O)=O)c(F)c1 (configuration not stated) | – | –
5.9 | 1.99 | Not Active | – | – | CC(C(=O)NCc1ccc(C(F)(F)F)nc1N(Cc1ccccc1)S(=O)(=O)c1ccccc1)c1ccc(NS(C)(=O)=O)c(F)c1 (configuration not stated) | Dose-dependent effect | 15.6
7.9 | 1.65 | Not Active | – | – | COc1ccc(CN(c2nc(C(F)(F)F)ccc2CNC(=O)C(C)c2ccc(NS(C)(=O)=O)c(F)c2)S(=O)(=O)c2ccc(F)cc2)cc1 (configuration not stated) | – | –

Continued, molecule first:

Structure (SMILES) | Ki ([1]; read-out: Ki) [nM] | Ki ([2]; read-out: Ki) [nM] | EC50 [3] | Ki ([1]; cho) | Ki ([2]; cho) | Activity (Mus musculus) | ED50 (Mus musculus) [mg/kg]
CC(C(=O)NCc1ccc(C(F)(F)F)nc1N(c1ccccc1)S(=O)(=O)c1ccccc1)c1ccc(NS(C)(=O)=O)c(F)c1 (configuration not stated) | 6 | 18.3 | Not Active | – | – | – | –
CC(C(=O)NCc1ccc(C(F)(F)F)nc1N(C(C)C)S(=O)(=O)c1ccccc1)c1ccc(NS(C)(=O)=O)c(F)c1 (configuration not stated) | 27.6 | 410 | Not Active | – | – | – | –
CCS(=O)(=O)N(Cc1ccccc1)c1nc(C(F)(F)F)ccc1CNC(=O)C(C)c1ccc(NS(C)(=O)=O)c(F)c1 (configuration not stated) | 11.9 | 38 | Not Active | – | – | – | –
CC(C(=O)NCc1ccc(C(F)(F)F)nc1N(CC1CCCCC1)S(=O)(=O)c1ccccc1)c1ccc(NS(C)(=O)=O)c(F)c1 (configuration not stated) | 10 | 2.3 | Not Active | – | – | – | –
CCCS(=O)(=O)N(Cc1ccccc1)c1nc(C(F)(F)F)ccc1CNC(=O)C(C)c1ccc(NS(C)(=O)=O)c(F)c1 (configuration not stated) | – | – | Not Active | – | – | – | –
CC1CCN(c2nc(C(F)(F)F)ccc2CNC(=O)C(C)c2ccc(NS(C)(=O)=O)c(F)c2)CC1 (configuration not stated) | 2.22 | 7.9 | Not Active | – | – | – | –
CC(C(=O)NCc1ccc(C(F)(F)F)nc1N(Cc1ccccc1)S(=O)(=O)C(C)C)c1ccc(NS(C)(=O)=O)c(F)c1 (configuration not stated) | 6.19 | 18.1 | Not Active | – | – | – | –
CC(C(=O)NCc1ccc(C(F)(F)F)nc1N(C)S(=O)(=O)c1ccccc1)c1ccc(NS(C)(=O)=O)c(F)c1 (configuration not stated) | 100 | 698 | Not Active | – | – | – | –
CC(C(=O)NCc1ccc(C(F)(F)F)nc1NS(=O)(=O)c1ccccc1)c1ccc(NS(C)(=O)=O)c(F)c1 (configuration not stated) | – | – | Not Active | Active | Active | – | –
CC1CCN(c2nc(C(F)(F)F)ccc2CNC(=O)[C@@H](C)c2ccc(NS(C)(=O)=O)c(F)c2)CC1 | 1.26 | 2.95 | Not Active | – | – | – | –
